Measured values taken from ChEMBL document CHEMBL5724696, “Autophagy assay results for EUbOPEN Chemogenomics Library” (2024).
“And” between values parts separate entries of the source, which are not always exact repeats. Equal values may be shown once.

Assays:
[1] = system: U2OS; experiment: (§1) Here: values are normalized to the positive (DMSO; basel flux = defined as 100% suppression) and negative (250nM Torin1; mTOR inhibitor; maximal inducer of autophagy defined as 0% suppression) control compounds and represented as % of ER-phagy suppression. […] The impact of autophagy induction on cells is complex and depends on the affected target. […] Of note, treatment concentrations may be sub-optimal for specific compounds, leading to false negative annotations.; type: functional, Homo sapiens; conditions: Compound Concentration 1 uM, Culturing Media DMEM, 1 % Penicillin/Streptomycin, 10% Fetal bovin serum Add-On: blasticidin, Screening Media Control DMEM, 10% Fetal bovin serum Add-On: 1 µg/ml Doxycyclin, Screening Media Samples DMEM
[2] = system: U2OS; experiment: as §1; type: functional, Homo sapiens; conditions: Compound Concentration 1 uM, Culturing Media DMEM, 1 % Penicillin/Streptomycin, 10% Fetal bovin serum Add-On: blasticidin, Screening Media Control DMEM, 10% Fetal bovin serum Add-On: 1 µg/ml Doxycyclin, Screening Media Samples DMEM; remark: listed apart in the source
[3] = Timepoint 12 hours, 10% Fetal bovin serum Add-On: 1 µg/ml Doxycyclin 250nM Torin1
[4] = Timepoint 24 hours, 10% Fetal bovin serum Add-On: 1 µg/ml Doxycyclin 250nM Torin1
[5] = Timepoint 36 hours, 10% Fetal bovin serum Add-On: 1 µg/ml Doxycyclin 250nM Torin1
[6] = Timepoint 60 hours, 10% Fetal bovin serum Add-On: 1 µg/ml Doxycyclin 250nM Torin1
[7] = Timepoint 54 hours, 10% Fetal bovin serum Add-On: 1 µg/ml Doxycyclin 250nM Torin1
[8] = Timepoint 12 hours, 10% Fetal bovin serum Add-On: 1 µg/ml Doxycyclin 250nM Torin1, 12 h, 1 µM
[9] = Timepoint 24 hours, 10% Fetal bovin serum Add-On: 1 µg/ml Doxycyclin 250nM Torin1, 24 h, 1 µM
[10] = Timepoint 36 hours, 10% Fetal bovin serum Add-On: 1 µg/ml Doxycyclin 250nM Torin1, 36 h, 1 µM
[11] = Timepoint 60 hours, 10% Fetal bovin serum Add-On: 1 µg/ml Doxycyclin 250nM Torin1, 60 h, 1 µM
[12] = Timepoint 54 hours, 10% Fetal bovin serum Add-On: 1 µg/ml Doxycyclin 250nM Torin1, 54 h, 1 µM

Row | SMILES | ER-phagy suppression [1, 3] | ER-phagy suppression [1, 4] | ER-phagy suppression [1, 5] | ER-phagy suppression [1, 6] | ER-phagy suppression [2, 3] | ER-phagy suppression [2, 4] | ER-phagy suppression [2, 5] | ER-phagy suppression [2, 7] | ER-phagy suppression [1, 8] | ER-phagy suppression [1, 9] | ER-phagy suppression [1, 10] | ER-phagy suppression [1, 11] | ER-phagy suppression [2, 8] | ER-phagy suppression [2, 9] | ER-phagy suppression [2, 10] | ER-phagy suppression [2, 12]
1 | C[C@@H]1CN(c2cc(-c3n[nH]c4ccc(OC5(C)CC5)cc34)ncn2)C[C@H](C)O1 [MLi-2] | 9.792% | 2.978% | -16.0797% | -15.9794% | 2.807% | -15.8401% | -22.331% | -20.0591% | – | – | – | – | – | – | – | –
2 | Cc1ccc(NC(=O)Nc2cc(C(F)(F)F)ccc2F)cc1Nc1ccc2c(c1)NC(=O)/C2=C\c1ccc[nH]1 | 18.743% | -2.579% | -6.116% | -1.261% | -7.664% | -22.8744% | -24.0512% | -22.1975% | – | – | – | – | – | – | – | –
3 | CCOC(=O)c1c(/C(C#N)=C\N)c2ccc(Cl)c(Cl)c2n1C | -5.524% | -4.715% | 1.333% | -3.592% | -23.9161% | -42.4331% | -44.7519% | -41.2832% | – | – | – | – | – | – | – | –
4 | O=c1cc(N2CCOCC2)oc2c1ccc1ccccc12 | -2.095% | 14.4083% | 8.467% | 13.3057% | 4.944% | -13.6038% | -17.5746% | -11.078% | – | – | – | – | – | – | – | –
5 | Cc1ccc(-c2cnc([C@@]3(O)CC[C@H](C(=O)O)C(C)(C)C3)s2)cc1Nc1cccc(C(F)(F)F)n1 [MRL-SYKi-NC] | -10.2062% | -4.2474% | -12.4056% | -6.238% | -2.6288% | -19.3711% | -27.7592% | -26.2542% | – | – | – | – | – | – | – | –
6 | Cn1cc(-c2ccc3nnc(Sc4ccc5ncccc5c4)n3n2)cn1 [SGX-523] | 6.2538% | 0.9511% | 4.373% | 11.7711% | -11.2391% | -26.6862% | -36.424% | -40.7928% | – | – | – | – | – | – | – | –
7 | CN(C)C(=O)Cn1cc(-c2ccc(-c3nnc4ccccn34)cc2)cn1 | -17.2141% | -21.3564% | -13.477% | -20.2221% | -13.7824% | -23.4109% | -24.5481% | -15.5458% | – | – | – | – | – | – | – | –
8 | CN1C(=O)[C@@H](N2CCc3cn(Cc4ccccc4)nc3C2=O)COc2ccccc21 [TP-030-1] | -22.1461% | -11.0455% | -18.8351% | -24.8138% | -1.154% | -18.125% | -30.7242% | -23.6126% | – | – | – | – | – | – | – | –
9 | Cc1cnc(-c2cc(Cl)ccc2F)cc1-n1c(=O)n(CC(N)=O)c2ccccc21 [Al11] | -12.5733% | -18.3016% | -21.1778% | -20.9921% | -9.163% | -26.2915% | -35.1418% | -38.7834% | – | – | – | – | – | – | – | –
10 | CNC(=O)c1ccccc1Nc1cc(Nc2ccc(N3CCOCC3)cc2OC)ncc1C(F)(F)F [VS-4718] | 7.822% | -10.4532% | -8.464% | -16.508% | 14.2845% | -7.017% | -5.515% | 11.4938% | – | – | – | – | – | – | – | –
11 | CC(=O)Nc1cccc(-n2c(=O)n(C3CC3)c(=O)c3c(Nc4ccc(I)cc4F)n(C)c(=O)c(C)c32)c1 [TRAMETINIB] | 22.5636% | 31.8836% | 34.8635% | 24.7233% | -5.637% | 10.9132% | 18.5776% | 29.3457% | – | – | – | – | – | – | – | –
12 | O=C(O)[C@]1(Cc2cccc(Nc3nccs3)n2)CC[C@@H](Oc2cccc(Cl)c2F)CC1 [MK-5108] | – | – | – | – | – | – | – | – | 0.5036% and -6.3832% | -3.155% and -11.7886% | -0.3659% and -12.8084% | 7.072% and -14.3125% | -21.8455% and -0.3871% | -36.5962% and -17.27% | -35.461% and -24.0375% | -31.7232% and -12.4423%
13 | O=C(NCc1cccc(O)c1)Nc1nc(-c2ccncc2)cs1 | 38.3546% | 42.4931% | 43.3897% | 45.9293% | -63.2417% | -37.1145% | 6.149% | 46.7933% | – | – | – | – | – | – | – | –
14 | Cn1ccc(Cn2cnc(-c3ccc(F)cc3)c2-c2ccnc3[nH]ccc23)n1 | -25.1326% | -19.5738% | 5.753% | 8.035% | 3.096% | -2.866% | 1.074% | 6.853% | – | – | – | – | – | – | – | –
15 | CCC(=O)Nc1cc(Nc2cc(NC3CC3)n3ncc(C#N)c3n2)ccc1C | – | – | – | – | – | – | – | – | 25.0893% and 12.0462% | 43.9531% and 30.6203% | 57.0471% and 46.34% | 65.9791% and 54.7573% | 67.8996% and 33.7182% | 72.4419% and 40.8117% | 80.6378% and 60.338% | 84.9565% and 68.6565%
16 | CCCCN(Cc1ccccc1)C(=O)c1ccc(S(=O)(=O)Nc2ccccc2)cc1 | -1.971% | -6.76% | -4.753% | -26.4705% | -7.8361% | -20.651% | -23.4672% | -25.4681% | – | – | – | – | – | – | – | –
17 | OCCn1cc(-c2ccc3c(c2)CCC3=NO)c(-c2ccncc2)n1 | 13.4101% | 0.6971% | -0.91% | 0.4621% | -23.6151% | -59.1263% | -53.5237% | -39.7477% | – | – | – | – | – | – | – | –
18 | CC(C)C(=O)Nc1n[nH]c2cc(-c3cccc(NS(=O)(=O)C4CC4)c3)ccc12 | 0.1153% | 4.089% | -6.11% | -14.0127% | 3.579% | -4.784% | -8.796% | -3.527% | – | – | – | – | – | – | – | –
19 | COc1cc(Nc2nccc(-c3cnn4nc(OC)ccc34)n2)cc(C(F)(F)F)c1 | 6.994% | 7.618% | 14.0346% | 17.1827% | 3.334% | -9.159% | -23.3987% | -10.034% | – | – | – | – | – | – | – | –
